According to US11325913B2, “Compounds and methods for the treatment of malaria” (THE BROAD INSTITUTE, INC., priority 2013, dated 2022):

System: P. falciparum Dd2
Assay: Activity against the Dd2 strain of P. falciparum (SYBR Green I, 72 h)
Type: cell-based
Settings: P. falciparum Dd2, 72 h incubation
Protocol: The Dd2 strain of P. falciparum was cultured in complete medium (RPMI with L-glutamine, 4.3% heat-inactivated O-positive human serum, 2.08 mg/ml albumax, 0.013 mg/ml hypoxanthine, 1.17 mg/ml glucose, 0.18% NaHCO3, 0.031 M Hepes, 2.60 mM NaOH, and 0.043 mg/ml gentamicin) until the parasitemia reached 3-8%. Parasitemia was determined by checking at least 500 red blood cells from a Giemsa-stained blood smear. The Dd2 cultures along with tested O-positive red blood cells were centrifuged at room temperature at 2,000 rpm for 5 minutes using an Eppendorf centrifuge 5810R with an A-4-81 rotor. The medium was aspirated off. For the compound screening, a parasite dilution at a 1% parasitemia and 1.0% hematocrit was created with screening medium (RPMI with L-glutamine, 4.16 mg/ml albumax II, 0.013 mg/ml hypoxanthine, 1.73 mg/ml glucose, 0.18% NaHCO3, 0.031 M Hepes, 2.60 mM NaOH, and 0.043 mg/ml gentamicin). The suspension was gassed with 93% nitrogen, 4% carbon dioxide, and 3% oxygen and placed at 37° C. until needed. Using a liquid dispenser, 20 μl of screening medium was dispensed into 384-well, black, clear-bottom plates. With a PinTool, 100 nl of compounds dissolved in DMSO was transferred into the assay plates along with control compound (mefloquine). Next, 30 μl of the parasite suspension in screening medium was then dispensed into the assay plates such that the final parasitemia was 1% and the final hematocrit was 1.0%. Final concentration of DMSO was 0.125%. Mefloquine at a final concentration of 20 μM and DMSO at a final concentration of 0.125% were used within the assay plates to serve as background and baseline controls, respectively. The assay plates were transferred to incubators (93% nitrogen, 4% carbon dioxide, and 3% oxygen during the 72 h incubation at 37° C.). Ten microliters of detection reagent consisting of 10×SYBR Green I (Invitrogen; supplied in 10,000× concentration) in lysis buffer (20 mM Tris-HCl, 5 mM EDTA, 0.16% Saponin wt/vol, 1.6% Triton X vol/vol) was dispensed into the assay plates. For optimal staining, the assay plates were left at room temperature for 24 h in the dark. The assay plates were read by using an Envision (PerkinElmer) reader, with 505 dichroic mirrors with 485-nm excitation and 530-nm emission settings, and the plate reads were from the bottom.
By following the above-described protocol, the 50% effective concentration (EC50) for compounds 1-95 was measured against P. falciparum Dd2 and the results are shown in Table 2: […]

[1] = Plasmodium falciparum, DD2, 72 h

Row | SMILES | EC50 [1] | EC50
1 | COc1ccc(NC(=O)N2CCCCN3[C@@H](CO)[C@H](c4ccc(C#Cc5ccccc5)cc4)[C@@H]3C2)cc1 [Compound 52, (8R,9R,10R)-10-(hydroxymethyl)-N-(4-methoxyphenyl)-9-[4-(2-phenylethynyl)phenyl]-1,6-diazabicyclo[6.2.0] decane-6-carboxamide] | 17 nM | –
2 | COc1ccc(NC(=O)N2CCCCN3[C@H](C(=O)O)[C@H](c4ccc(C#Cc5ccccc5)cc4)[C@@H]3C2)cc1 [Compound 53, (8R,9R,10S)-6-[(4-methoxyphenyl)carbamoyl]-9-[4-(2-phenylethynyl)phenyl]-1,6-diazabicyclo[6.2.0] decane-10-carboxylic acid] | 2770 nM | –
3 | O=C(Nc1ccc(F)cc1)N1CCCCN2[C@H](CO)[C@H](c3ccc(C#Cc4ccccc4)cc3)[C@@H]2C1 [Compound 54, (8R,9R,10S)-N-(4-fluorophenyl)-10-(hydroxymethyl)-9-[4-(2-phenylethynyl)phenyl]-1,6-diazabicyclo[6.2.0] decane-6-carboxamide] | – | 156 nM
4 | COc1ccc(NC(=O)N2CCCCN3[C@H](CN4CCOCC4)[C@H](c4ccc(C#Cc5ccccc5)cc4)[C@@H]3C2)cc1 [Compound 55, (8R,9S,10S)-N-(4-methoxyphenyl)-10-(morpholin-4-ylmethyl)-9-[4-(2-phenylethynyl)phenyl]-1,6-diazabicyclo[6.2.0] decane-6-carboxamide] | 5 nM | –
5 | COc1cccc(NC(=O)N2CCCCN3[C@H](CO)[C@H](c4ccc(C#Cc5ccccc5)cc4)[C@@H]3C2)c1 [Compound 56] | 80 nM | –
6 | COc1ccc(NC(=O)N2CCCCN3[C@H](CN)[C@H](c4ccc(C#Cc5ccccn5)cc4)[C@@H]3C2)cc1 [Compound 57, (8R,9S,10S)-10-(aminomethyl)-N-(4-methoxyphenyl)-9-{4-[2-(pyridin-2-yl)ethynyl]phenyl}-1,6-diazabicyclo[6.2.0] decane-6-carboxamide] | 98 nM | –
7 | COc1ccc(NC(=O)N2CCCCN3[C@H](CNC(C)=O)[C@H](c4ccc(C#Cc5ccccc5)cc4)[C@@H]3C2)cc1 [Compound 58, (8R,9S,10S)-10-(acetamidomethyl)-N-(4-methoxyphenyl)-9-[4-(2-phenylethynyl)phenyl]-1,6-diazabicyclo[6.2.0] decane-6-carboxamide] | 6 nM | –
8 | O=C(Nc1cccnc1)N1CCCCN2[C@H](CO)[C@H](c3ccc(C#Cc4ccccc4)cc3)[C@@H]2C1 [Compound 59, (8R,9R,10S)-10-(hydroxymethyl)-9-[4-(2-phenylethynyl)phenyl]-N-(pyridin-3-yl)-1,6-diazabicyclo[6.2.0] decane-6-carboxamide] | 2700 nM | –
9 | COc1ccc(NC(=O)N2CCCCN3[C@H](CO)[C@H](c4ccc(C#Cc5cccnc5)cc4)[C@@H]3C2)cc1 [Compound 60, (8R,9R,10S)-10-(hydroxymethyl)-N-(4-methoxyphenyl)-9-{4-[2-(pyridin-3-yl)ethynyl]phenyl}-1,6-diazabicyclo[6.2.0] decane-6-carboxamide] | 61 nM | –
10 | CNC[C@@H]1[C@H](c2ccc(C#Cc3ccccc3)cc2)[C@@H]2CN(C(=O)Nc3ccc(OC)cc3)CCCCN12 [Compound 61, (8R,9S,10S)-N-(4-methoxyphenyl)-10-[(methylamino)methyl]-9-[4-(2-phenylethynyl)phenyl]-1,6-diazabicyclo[6.2.0] decane-6-carboxamide] | 47 nM | –
11 | COc1ccc(N(C)C(=O)N2CCCCN3[C@H](CO)[C@H](c4ccc(C#Cc5ccccc5)cc4)[C@@H]3C2)cc1 [Compound 62, (8R,9R,10S)-10-(hydroxymethyl)-N-(4-methoxyphenyl)-N-methyl-9-[4-(2-phenylethynyl)phenyl]-1,6-diazabicyclo[6.2.0] decane-6-carboxamide] | 4430 nM | –
12 | COc1ccc(CN2CCCCN3[C@H](CO)[C@H](c4ccc(C#Cc5ccccc5)cc4)[C@@H]3C2)cc1 [Compound 63, [(8R,9R,10S)-6-[(4-methoxyphenyl)methyl]-9-[4-(2-phenylethynyl)phenyl]-1,6-diazabicyclo[6.2.0]decan-10-yl]methanol] | 1230 nM | –
13 | COc1ccc(NC(=O)N2CCCCN3[C@H](CO)[C@H](c4ccc(-c5cccnc5)cc4)[C@@H]3C2)cc1 [Compound 64, (8R,9R,10S)-10-(hydroxymethyl)-N-(4-methoxyphenyl)-9-[4-(pyridin-3-yl)phenyl]-1,6-diazabicyclo[6.2.0] decane-6-carboxamide] | 1010 nM | –
14 | COc1ccc(NC(=O)N2CCCCN3[C@H](CNC(C)=O)[C@H](c4ccc(C#Cc5ccccn5)cc4)[C@@H]3C2)cc1 [Compound 65, (8R,9S,10S)-10-(acetamidomethyl)-N-(4-methoxyphenyl)-9-{4-[2-(pyridin-2-yl)ethynyl]phenyl}-1,6-diazabicyclo[6.2.0] decane-6-carboxamide] | 110 nM | –
15 | COc1ccc(NC(=O)N2CCCCN3[C@H](CO)[C@H](c4ccc(-c5ccn(-c6ccccc6)c5)cc4)[C@@H]3C2)cc1 [Compound 66, (8R,9R,10S)-10-(hydroxymethyl)-N-(4-methoxyphenyl)-9-[4-(1-phenyl-1H-pyrrol-3-yl)phenyl]-1,6-diazabicyclo[6.2.0] decane-6-carboxamide] | 1310 nM | –
16 | COc1ccc(NC(=O)N2CCCCN3[C@H](CO)[C@H](c4ccc(-c5cccc(F)c5)cc4)[C@@H]3C2)cc1 [Compound 67, (8R,9R,10S)-9-[4-(3-fluorophenyl)phenyl]-10-(hydroxymethyl)-N-(4-methoxyphenyl)-1,6-diazabicyclo[6.2.0] decane-6-carboxamide] | 19500 nM | –
17 | COc1ccc(NC(=O)N2CCCCN3[C@H](CO)[C@H](c4ccc(-c5ccncc5)cc4)[C@@H]3C2)cc1 [Compound 69, (8R,9R,10S)-10-(hydroxymethyl)-N-(4-methoxyphenyl)-9-[4-(pyridin-4-yl)phenyl]-1,6-diazabicyclo[6.2.0] decane-6-carboxamide] | 19500 nM | –
18 | COc1ccc(NC(=O)N2CCCCN3C[C@H](c4ccc(C#Cc5ccccc5)cc4)[C@@H]3C2)cc1 [Compound 70, (8R,9S)-N-(4-methoxyphenyl)-9-[4-(2-phenylethynyl)phenyl]-1,6-diazabicyclo[6.2.0] decane-6-carboxamide] | 13 nM | –
19 | COc1ccc(NC(=O)N2CCCCN3[C@H](CO)[C@H](c4ccc(C#Cc5ccc(F)c(F)c5)cc4)[C@@H]3C2)cc1 [Compound 71, (8R,9R,10S)-9-{4-[2-(3,4-difluorophenyl)ethynyl]phenyl}-10-(hydroxymethyl)-N-(4-methoxyphenyl)-1,6-diazabicyclo[6.2.0] decane-6-carboxamide] | 34 nM | –
20 | COc1ccc(NC(=O)N2CCCCN3[C@H](CO)[C@H](c4ccc(C#Cc5ccccc5F)cc4)[C@@H]3C2)cc1 [Compound 72, (8R,9R,10S)-9-{4-[2-(2-fluorophenyl)ethynyl]phenyl}-10-(hydroxymethyl)-N-(4-methoxyphenyl)-1,6-diazabicyclo[6.2.0] decane-6-carboxamide] | 17 nM | –
21 | COc1ccc(NC(=O)N2CCCCN3[C@H](CN4CC(C)(O)C4)[C@H](c4ccc(C#Cc5ccccc5)cc4)[C@@H]3C2)cc1 [Compound 73, (8R,9S,10S)-10-[(3-hydroxy-3-methylazetidin-1-yl)methyl]-N-(4-methoxyphenyl)-9-[4-(2-phenylethynyl)phenyl]-1,6-diazabicyclo[6.2.0] decane-6-carboxamide] | 104 nM | –
22 | COc1ccc(NC(=O)N2CCCCCN3[C@H](CO)[C@H](c4ccc(C#Cc5ccccc5)cc4)[C@@H]3C2)cc1 [Compound 74, (9R,10R,11S)-11-(hydroxymethyl)-N-(4-methoxyphenyl)-10-[4-(2-phenylethynyl)phenyl]-1,7-diazabicyclo[7.2.0] undecane-7-carboxamide] | 87 nM | –
23 | COc1ccc(NC(=O)N2CCCCN3[C@H](CO)[C@H](c4ccc(C#Cc5ccc(F)cc5F)cc4)[C@@H]3C2)cc1 [Compound 75, (8R,9R,10S)-9-{4-[2-(2,4-difluorophenyl)ethynyl]phenyl}-10-(hydroxymethyl)-N-(4-methoxyphenyl)-1,6-diazabicyclo[6.2.0] decane-6-carboxamide] | 71 nM | –
24 | COc1ccc(NC(=O)N2CCCCN3[C@H](CN(C)C(C)=O)[C@H](c4ccc(C#Cc5ccccc5)cc4)[C@@H]3C2)cc1 [Compound 76, (8R,9S,10S)-N-(4-methoxyphenyl)-10-[(N-methylacetamido)methyl]-9-[4-(2-phenylethynyl)phenyl]-1,6-diazabicyclo[6.2.0] decane-6-carboxamide] | 8 nM | –
